Here are results for 15 compounds from publication PMC6832141, “Synthesis and Cyclooxygenase Inhibition of Sulfonamide-Substituted (Dihydro)Pyrrolo[3,2,1-hi]indoles and Their Potential Prodrugs” (Molecules, 2019).

pIC50: −log10 of the molar value.

The target of one data set is T1, ovine COX-1 (Ovis aries, UniProt P05979).
T1 construct: purchased Cayman Chemical 700100
T1 sequence (P05979 25-600): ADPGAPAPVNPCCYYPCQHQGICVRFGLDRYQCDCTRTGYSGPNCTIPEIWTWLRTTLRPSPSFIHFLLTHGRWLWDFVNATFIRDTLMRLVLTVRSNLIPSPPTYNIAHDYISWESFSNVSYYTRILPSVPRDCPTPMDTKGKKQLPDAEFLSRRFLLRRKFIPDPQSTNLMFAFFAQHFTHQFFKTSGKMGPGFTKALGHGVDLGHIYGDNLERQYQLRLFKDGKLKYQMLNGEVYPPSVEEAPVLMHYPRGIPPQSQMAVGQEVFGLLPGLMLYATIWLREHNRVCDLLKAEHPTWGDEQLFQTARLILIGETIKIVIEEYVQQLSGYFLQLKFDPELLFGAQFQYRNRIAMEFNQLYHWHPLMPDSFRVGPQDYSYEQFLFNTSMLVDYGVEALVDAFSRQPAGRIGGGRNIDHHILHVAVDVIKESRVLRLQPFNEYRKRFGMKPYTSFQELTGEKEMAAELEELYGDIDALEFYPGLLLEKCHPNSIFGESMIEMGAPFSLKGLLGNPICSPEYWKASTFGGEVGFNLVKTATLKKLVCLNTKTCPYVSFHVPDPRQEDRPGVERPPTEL
In words: COX Fluorescent Inhibitor Screening Assay Kit (Cayman 700100), COX-1. It is filed as biochemical. As to conditions: values marked ** : compounds were screened at a concentration of 100 µM.

A short description of data set [1]: Lipophilicity, logD7.4 by HPLC method (Donovan and Pescatore). The class given is physicochemical. The settings on record: HPLC column ODP-50 4B (Shodex Asahipak 50 × 4.6 mm); pH 7.4, HPLC system 2, MeOH/PBS gradient. As to the method:
The lipophilicity of all synthesized compounds was determined as logD7.4HPLC value (Table 1) using an HPLC method originally described by Donovan and Pescatore.
Column chromatography was performed using silica gel (mesh size 40–63 µm). Thin-layer chromatography (TLC) was performed on silica gel F-254 aluminum plates and visualized using UV (254 nm/366 nm). Analytical HPLC analysis was carried out with the following systems: (system 1) Agilent 1200 HPLC (Santa Clara, CA, USA; pump G1311A, autosampler G1329A, column oven G1316A, degasser G1322A, UV detector G1315D, γ detector Gabi Star (Raytest), Luna C18 column (Phenomenex, 250 × 4.6 mm), flow rate = 1 mL/min, isocratic eluent (MeCN/0.1% TFA in H2O 70/30 (v/v)); (system 2) Agilent 1100 HPLC (Santa Clara, CA, USA; binary pump G1312A, autosampler G1313A, column oven G1316A, degasser G1322A, UV detector G1314A, γ detector Gabi Star (Raytest, Straubenhardt, Germany); column ODP-50 4B (Shodex Asahipak 50 × 4.6 mm); eluent: MeOH/PBS (10 mM, pH 7.4) gradient t0 min 30/70 - t25 min 95/5 - t27 min 95/5 - t28 min 30/70 - t40 min 30/70, flow rate = 0.6 mL/min; (system 3) waters UPLC I-Class (Milford, MA, USA; binary gradient pump BSM, autosampler FTN, column manager CM, and diode array detector PDAeλ coupled to Waters Xevo TQ-S), column Aquity UPLC® BEH C18 column (waters, 100 × 2.1 mm, 1.7 µm, 130 Å), eluent: (A): 0.1% acetic acid in MeCN/MeOH 1/1/(B): 0.1% acetic acid in H2O; flow rate 0.4 mL/min), gradient: t0 min 45/55 - t0.5 min 45/55 - t5.5 min 95/5 - t7.0 min 95/5 - t8.0 min 45/55 – t8.5 min 45/55; (system 4) column (Kinetex C-18 (Phenomenex 50 × 2.1 mm, 1.7 µm, 100 Å), Shimadzu Nexera X2 UHPLC system (Kyoto, Japan; degasser DGU-20A3R and DGU-20A5R, pump LC-30AD, autosampler SIL-30AC, column oven CTO-20AC with two column switching valves FCV-14AH, diode array detector SPD-M30A, γ detector Gabi Star (Raytest, Straubenhardt, Germany), communication bus module CBM-20A), eluent: (A): MeCN, (B): 0.1% trifluoroacetic acid in H2O; flow rate 0.5 mL/min), gradient: t0 min 25/75 - t0.3 min 25/75 - t4.0 min 75/25 - t4.5 min 95/5 - t5.5 min 95/5 - t6.0 min 25/75 – t7.5 min 25/75. The products were monitored by an UV detector at 254 nm and purity of all compounds exceeded 95% as determined by analytical HPLC analysis (system 1 or system 3), unless otherwise stated. Semi-preparative HPLC was performed using the following system: column (C-18 Jupiter Proteo (Phenomenex 250 × 21.1 mm, 4 µm, 90 Å), Shimadzu prominence modular HPLC system (Kyoto, Japan; degasser DGU-20A5R, 2× pump LC-20AR, autosampler SIL-20AC HT, column oven CTO-20AC with column switching valve, diode array detector SPD-M20A, fluorescence detector RF-20A, and fraction collector FRC-10A, communication bus module CBM-20A), isocratic eluent 0.1% TFA in MeCN/0.1% TFA in H2O 70/30, flow rate = 10 mL/min.
The logD7.4HPLC value was determined as previously reported by us utilizing an HPLC method originally described by Donovan and Pescatore[18]. […]

The target of the next data set is T2, human COX-2 (Homo sapiens, UniProt P35354).
T2 construct: purchased Cayman Chemical 700100
T2 sequence (P35354 18-604): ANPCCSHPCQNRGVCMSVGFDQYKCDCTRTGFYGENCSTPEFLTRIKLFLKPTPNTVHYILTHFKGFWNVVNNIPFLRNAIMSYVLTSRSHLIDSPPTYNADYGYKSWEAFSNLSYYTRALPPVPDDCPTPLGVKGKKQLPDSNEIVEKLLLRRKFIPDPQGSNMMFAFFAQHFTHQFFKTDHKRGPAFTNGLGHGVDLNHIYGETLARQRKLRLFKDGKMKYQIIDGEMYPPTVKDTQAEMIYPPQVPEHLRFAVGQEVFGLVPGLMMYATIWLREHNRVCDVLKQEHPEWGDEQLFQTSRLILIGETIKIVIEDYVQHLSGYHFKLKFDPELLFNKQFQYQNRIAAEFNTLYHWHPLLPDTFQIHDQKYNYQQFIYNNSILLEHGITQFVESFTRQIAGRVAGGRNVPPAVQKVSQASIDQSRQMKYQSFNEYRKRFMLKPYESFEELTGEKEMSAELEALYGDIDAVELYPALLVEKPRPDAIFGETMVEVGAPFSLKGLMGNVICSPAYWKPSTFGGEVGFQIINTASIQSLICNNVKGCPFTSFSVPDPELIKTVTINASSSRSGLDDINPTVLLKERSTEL
In words: COX Fluorescent Inhibitor Screening Assay Kit (Cayman 700100), COX-2. It is filed as biochemical. The settings on record: for SI (selectivity index): SI = IC50 (COX-1)/IC50 (COX-2); for pIC50: human COX-2, values marked ** : compounds were screened at a concentration of 100 µM.

For `NS(=O)(=O)c1ccc(-c2c(-c3ccccc3)c3cccc4c3n2CC4)cc1` [1a, 5-Phenyl-4-[4-(sulfamoyl)phenyl]-1,2-dihydropyrrolo[3,2,1-hi]indole], the pIC50 against ovine COX-1 is 4.42. The chromatographic logD in data set [1] was 4.44. For the same compound, on human COX-2, the “SI (selectivity index)” value is given as 355 and the pIC50 is 6.97.

Take `Cc1ccc(-c2c(-c3ccc(S(N)(=O)=O)cc3)n3c4c(cccc24)CC3)cc1` [1b, 4-[4-(Sulfamoyl)phenyl]-5-(p-tolyl)-1,2-dihydropyrrolo[3,2,1-hi]indole]: on ovine COX-1, the pIC50 is 4.22. This compound gave a chromatographic logD in data set [1] of 4.56. For the same compound, at human COX-2, the “SI (selectivity index)” value is recorded as 237 and the pIC50 was 6.60.

`NS(=O)(=O)c1ccc(-c2c(-c3ccc(Cl)cc3)c3cccc4c3n2CC4)cc1` [1c, 5-(4-Chlorophenyl)-4-[4-(sulfamoyl)phenyl]-1,2-dihydropyrrolo[3,2,1-hi]indole]: the pIC50 on ovine COX-1 was 4.82; at human COX-2 it was 6.97. The chromatographic logD in data set [1] came out at 4.9. For the same compound, the “SI (selectivity index)” value at human COX-2 is recorded as 144.

Regarding `NS(=O)(=O)c1ccc(-c2c(-c3ccc(F)cc3)c3cccc4c3n2CC4)cc1` [1d, 5-(4-Fluorophenyl)-4-[4-(sulfamoyl)phenyl]-1,2-dihydropyrrolo[3,2,1-hi]indole], the pIC50 on ovine COX-1 is 5.11; at human COX-2 it was 7.04. This compound also had a chromatographic logD in data set [1] of 4.53. Besides, the “SI (selectivity index)” value on human COX-2 is listed as 85.

Take `NS(=O)(=O)c1ccc(-c2c(-c3ccccc3)c3cccc4ccn2c43)cc1` [2a, 1-Phenyl-2-[4-(sulfamoyl)phenyl]pyrrolo[3,2,1-hi]indole]: the melting point was 218 to 220 °C. In addition, the pIC50 against ovine COX-1 was less than 4.00. For the same compound, the chromatographic logD in data set [1] was 4.59. On human COX-2, the “SI (selectivity index)” value is recorded as greater than 1887 and the pIC50 is 7.28.

In the case of `Cc1ccc(-c2c(-c3ccc(S(N)(=O)=O)cc3)n3ccc4cccc2c43)cc1` [2b, 2-[4-(Sulfamoyl)phenyl]-1-(p-tolyl)pyrrolo[3,2,1-hi]indole], the melting point was 233 to 235 °C. Further, on ovine COX-1, the pIC50 was less than 4.00. The compound also came in with a chromatographic logD in data set [1] of 4.73. At human COX-2, the “SI (selectivity index)” value was greater than 1087 and the pIC50 was 7.04.

In the case of `NS(=O)(=O)c1ccc(-c2c(-c3ccc(Cl)cc3)c3cccc4ccn2c43)cc1` [2c, 1-(4-Chlorophenyl)-2-[4-(sulfamoyl)phenyl]pyrrolo[3,2,1-hi]indole], the melting point lay within 270 to 273 °C. At ovine COX-1, this compound gave a pIC50 of less than 4.00. This compound also displayed a chromatographic logD in data set [1] of 4.89. Moreover, at human COX-2, the “SI (selectivity index)” value is listed as greater than 1136 and the pIC50 was 7.06.

Turning to `CCC(=O)NS(=O)(=O)c1ccc(-c2c(-c3ccccc3)c3cccc4c3n2CC4)cc1` [3a, N-{[4-(5-phenyl-1,2-dihydropyrrolo[3,2,1-hi]indol-4-yl)phenyl]sulfonyl}propionamide], the pIC50 at ovine COX-1 and against human COX-2 was less than 4.00 in each case. Further, the chromatographic logD in data set [1] was 2.05.

In the case of `CCC(=O)NS(=O)(=O)c1ccc(-c2c(-c3ccc(C)cc3)c3cccc4c3n2CC4)cc1` [3b, N-({4-[5-(p-tolyl)-1,2-dihydropyrrolo[3,2,1-hi]indol-4-yl]phenyl}sulfonyl)propionamide], the pIC50 against ovine COX-1 and against human COX-2 was less than 4.00 each time. Also, in data set [1], the chromatographic logD turned out to be 2.31.

`CCC(=O)NS(=O)(=O)c1ccc(-c2c(-c3ccc(Cl)cc3)c3cccc4c3n2CC4)cc1` [3c, N-({4-[5-(4-chlorophenyl)-1,2-dihydropyrrolo[3,2,1-hi]indol-4-yl]phenyl}sulfonyl)propionamide]: the pIC50 against ovine COX-1 was less than 4.00; against human COX-2, 4.58. Moreover, in data set [1], the chromatographic logD is 2.49. For the same compound, at human COX-2, the “SI (selectivity index)” value is given as greater than 3.8.

As for `CCC(=O)NS(=O)(=O)c1ccc(-c2c(-c3ccc(F)cc3)c3cccc4c3n2CC4)cc1` [3d, N-({4-[5-(4-fluorophenyl)-1,2-dihydropyrrolo[3,2,1-hi]indol-4-yl]phenyl}sulfonyl)propionamide], the pIC50 at ovine COX-1 and at human COX-2 was less than 4.00 each time. The chromatographic logD in data set [1] stood at 2.2.

As to `CCC(=O)NS(=O)(=O)c1ccc(-c2c(-c3ccccc3)c3cccc4ccn2c43)cc1` [4a, N-{[4-(1-phenylpyrrolo[3,2,1-hi]indol-2-yl)phenyl]sulfonyl}propionamide], in data set [1], the chromatographic logD was 2.24.

As to `CCC(=O)NS(=O)(=O)c1ccc(-c2c(-c3ccc(C)cc3)c3cccc4ccn2c43)cc1` [4b, N-({4-[1-(p-tolyl)pyrrolo[3,2,1-hi]indol-2-yl]phenyl}sulfonyl)propionamide], on ovine COX-1, the pIC50 was less than 4.00. Moreover, the chromatographic logD in data set [1] was 2.48. Moreover, on human COX-2, the “SI (selectivity index)” value is recorded as greater than 2.9 and the negative logarithm of the IC50 (pIC50) is 4.47.

Turning to `CCC(=O)NS(=O)(=O)c1ccc(-c2c(-c3ccc(Cl)cc3)c3cccc4ccn2c43)cc1` [4c, N-({4-[1-(4-chlorophenyl)pyrrolo[3,2,1-hi]indol-2-yl]phenyl}sulfonyl)propionamide], on ovine COX-1, the pIC50 is less than 4.00. For the same compound, the chromatographic logD in data set [1] stood at 2.6. On human COX-2, the “SI (selectivity index)” value is given as greater than 9.1 and the negative-log IC50 (pIC50) is 4.96.

For `CCC(=O)NS(=O)(=O)c1ccc(-c2c(-c3ccc(F)cc3)c3cccc4ccn2c43)cc1` [4d, N-({4-[1-(4-fluorophenyl)pyrrolo[3,2,1-hi]indol-2-yl]phenyl}sulfonyl)propionamide], the pIC50 at ovine COX-1 was less than 4.00. The compound further came in with a chromatographic logD in data set [1] of 2.3. Besides, at human COX-2, the “SI (selectivity index)” value is greater than 3.8 and the pIC50 was 4.58.
